Reference: PubChem BioAssay AID256 (DTP/NCI, 2004)
Several values for one entry are separate records, joined by “and”; a condition that tells them apart may be missing. Equal values may be shown once. Inconclusive results and toxic doses are left out. How the source made its calls: active means survival T/C of 150% or more; inactive means T/C below 125% in these data.

Tested on: CD2F1 mice, L1210 leukemia ip, survival T/C
Assay: NCI In Vivo Anticancer Drug Screen. Data for tumor model L1210 Leukemia (intraperitoneal) in CD2F1 (CDF1) mice
Details: higher = longer survival
In short: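 Ratio T/C, where T is the treated-group value and C the vehicle-dosed control value, from mice implanted with a transplantable tumor.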

[1] = endpoint: mean survival time, dose: 100.0 mg/kg/injection, schedule: Q01DX009 (ip), vehicle: saline with Tween-80
[2] = endpoint: mean survival time, dose: 100.0 mg/kg/injection, schedule: Q04DX003 (ip), vehicle: saline with Tween-80
[3] = endpoint: mean survival time, dose: 200.0 mg/kg/injection, schedule: Q01DX009 (ip), vehicle: saline with Tween-80
[4] = endpoint: mean survival time, dose: 200.0 mg/kg/injection, schedule: Q04DX003 (ip), vehicle: saline with Tween-80
[5] = endpoint: mean survival time, dose: 400.0 mg/kg/injection, schedule: Q01DX009 (ip), vehicle: saline with Tween-80
[6] = endpoint: mean survival time, dose: 400.0 mg/kg/injection, schedule: Q04DX003 (ip), vehicle: saline with Tween-80
[7] = endpoint: mean survival time, dose: 50.0 mg/kg/injection, schedule: Q01DX009 (ip), vehicle: saline with Tween-80
[8] = endpoint: mean survival time, dose: 12.5 mg/kg/injection, schedule: Q01DX005 (ip), vehicle: water
[9] = endpoint: mean survival time, dose: 25.0 mg/kg/injection, schedule: Q01DX005 (ip), vehicle: water
[10] = endpoint: mean survival time, dose: 50.0 mg/kg/injection, schedule: Q01DX005 (ip), vehicle: water
[11] = endpoint: mean survival time, dose: 100.0 mg/kg/injection, schedule: Q01DX005 (ip), vehicle: water
[12] = endpoint: mean survival time, dose: 200.0 mg/kg/injection, schedule: Q01DX005 (ip), vehicle: water

Measured: T/C

CC(=O)OCC(COC(C)=O)(COC(C)=O)COC(C)=O
inactive: [1] 97 % of control | [2] 100 % of control | [3] 97 % of control | [4] 96 % of control | [5] 98 % of control | [6] 93 % of control

N/C(=N\O)c1cn(C2OC(CO)C(O)C2O)c2ncnc(N)c12 (stereo unspecified)
inactive: endpoint: mean survival time, dose: 8.0 mg/kg/injection, schedule: Q01DX007 (ip), vehicle: saline 111 % of control

O=C1/C(=C/c2ccc(Cl)cc2Cl)CCC/C1=C\c1ccc(Cl)cc1Cl
inactive: [1] 87 % of control

CC(=O)c1cc2ccccc2c2ccccc12
inactive: [7] 89 % of control | [1] 97 % of control | [3] 101 % of control

CCOC(=O)Nc1cc(NC/C(CCc2ccccc2)=N/O)c([N+](=O)[O-])c(N)n1
inactive: endpoint: mean survival time, dose: 100.0 mg/kg/injection, schedule: Q01DX001 (ip), vehicle: Klucel (hydroxypropylcellulose) (HPC) 96 % of control | endpoint: mean survival time, dose: 200.0 mg/kg/injection, schedule: Q01DX001 (ip), vehicle: Klucel (hydroxypropylcellulose) (HPC) 91 % of control | endpoint: mean survival time, dose: 400.0 mg/kg/injection, schedule: Q01DX001 (ip), vehicle: Klucel (hydroxypropylcellulose) (HPC) 90 % of control

Oc1ccccc1C=Nc1ccccc1.Oc1ccccc1C=Nc1ccccc1.[Co]
inactive: endpoint: mean survival time, dose: 100.0 mg/kg/injection, schedule: Q04DX003 (ip), vehicle: other 92 % of control

Nc1ncnc2cc3c(cc12)ncn3C1OC(CO)C(O)C1O (stereo unspecified)
inactive: [8] 92 % of control | [9] 104 % of control | [10] 104 % of control | [11] 112 % of control | [12] 110 % of control

[N-]=[N+]=[N-]
inactive: endpoint: median survival time, dose: 0.75 mg/kg/injection, schedule: Q01DX009 (ip), vehicle: saline 101 % of control | endpoint: median survival time, dose: 1.5 mg/kg/injection, schedule: Q01DX009 (ip), vehicle: saline 101 % of control | endpoint: median survival time, dose: 3.0 mg/kg/injection, schedule: Q01DX009 (ip), vehicle: saline 93 % of control | endpoint: median survival time, dose: 6.0 mg/kg/injection, schedule: Q01DX009 (ip), vehicle: saline 103 % of control | endpoint: median survival time, dose: 12.0 mg/kg/injection, schedule: Q01DX009 (ip), vehicle: saline 92 % of control

Cc1cc(N(CCCl)CCCl)c(C)cc1NC(=O)c1ccccc1
inactive: endpoint: mean survival time, dose: 4.0 mg/kg/injection, schedule: Q01DX009 (ip), vehicle: saline 106 % of control | endpoint: mean survival time, dose: 6.0 mg/kg/injection, schedule: Q01DX009 (ip), vehicle: saline 115 % of control | endpoint: mean survival time, dose: 10.0 mg/kg/injection, schedule: Q01DX009 (ip), vehicle: saline 113 % of control | endpoint: mean survival time, dose: 18.0 mg/kg/injection, schedule: Q01DX009 (ip), vehicle: saline 121 % of control | endpoint: mean survival time, dose: 30.0 mg/kg/injection, schedule: Q01DX009 (ip), vehicle: saline 124 % of control

O=c1[nH]cnc2c1nc(Br)n2C1OC(CO)C(O)C1O (stereo unspecified)
inactive: endpoint: mean survival time, dose: 12.5 mg/kg/injection, schedule: Q01DX005 (ip), vehicle: Klucel (hydroxypropylcellulose) (HPC) 91 % of control | endpoint: mean survival time, dose: 25.0 mg/kg/injection, schedule: Q01DX005 (ip), vehicle: Klucel (hydroxypropylcellulose) (HPC) 89 % of control | endpoint: mean survival time, dose: 50.0 mg/kg/injection, schedule: Q01DX005 (ip), vehicle: Klucel (hydroxypropylcellulose) (HPC) 93 % of control | endpoint: mean survival time, dose: 100.0 mg/kg/injection, schedule: Q01DX005 (ip), vehicle: Klucel (hydroxypropylcellulose) (HPC) 88 % of control | endpoint: mean survival time, dose: 200.0 mg/kg/injection, schedule: Q01DX005 (ip), vehicle: Klucel (hydroxypropylcellulose) (HPC) 89 % of control

CCCCCCCCOC(=O)c1c(Cl)c(Cl)c(C(=O)OCCCCCCCC)c(Cl)c1Cl
inactive: [1] 98 % of control | [2] 97 % of control | [3] 102 % of control | [4] 97 % of control | [5] 96 % of control | [6] 97 % of control

O=C(CN1CC1)NCCCCCCCCNC(=O)CN1CC1
inactive: endpoint: mean survival time, dose: 4.4 mg/kg/injection, schedule: Q01DX009 (ip), vehicle: carboxymethylcellulose (CMC) 116 % of control | endpoint: mean survival time, dose: 6.6 mg/kg/injection, schedule: Q01DX009 (ip), vehicle: carboxymethylcellulose (CMC) 122 % of control | endpoint: mean survival time, dose: 22.0 mg/kg/injection, schedule: Q01DX001 (ip), vehicle: carboxymethylcellulose (CMC) 120 % of control | endpoint: mean survival time, dose: 33.0 mg/kg/injection, schedule: Q01DX001 (ip), vehicle: carboxymethylcellulose (CMC) 123 % of control

O=C(O)CC(O)(CC(=O)O)C(=O)O.[Sn]
inactive: endpoint: mean survival time, dose: 6.25 mg/kg/injection, schedule: Q04DX003 (ip), vehicle: saline with Tween-80 98 % of control | endpoint: mean survival time, dose: 12.5 mg/kg/injection, schedule: Q04DX003 (ip), vehicle: saline with Tween-80 90 % of control | endpoint: mean survival time, dose: 25.0 mg/kg/injection, schedule: Q04DX003 (ip), vehicle: saline with Tween-80 102 % of control

CCOc1ccc2nc3cc(N)ccc3c(N)c2c1
inactive: endpoint: mean survival time, dose: 25.0 mg/kg/injection, schedule: Q01DX009 (ip), vehicle: saline 101 % of control | endpoint: mean survival time, dose: 50.0 mg/kg/injection, schedule: Q01DX009 (ip), vehicle: saline 113 % of control | endpoint: mean survival time, dose: 100.0 mg/kg/injection, schedule: Q01DX009 (ip), vehicle: saline 122 % of control and 101 % of control | endpoint: mean survival time, dose: 100.0 mg/kg/injection, schedule: Q04DX003 (ip), vehicle: saline 114 % of control | endpoint: mean survival time, dose: 200.0 mg/kg/injection, schedule: Q04DX003 (ip), vehicle: saline 105 % of control | endpoint: mean survival time, dose: 400.0 mg/kg/injection, schedule: Q04DX003 (ip), vehicle: saline 105 % of control

CC(=O)O.[Tl]
inactive: endpoint: mean survival time, dose: 20.0 mg/kg/injection, schedule: Q01DX001 (ip), vehicle: saline 112 % of control | endpoint: mean survival time, dose: 80.0 mg/kg/injection, schedule: Q01DX001 (ip), vehicle: saline 97 % of control | endpoint: mean survival time, dose: 100.0 mg/kg/injection, schedule: Q01DX001 (ip), vehicle: saline 100 % of control | endpoint: mean survival time, dose: 200.0 mg/kg/injection, schedule: Q01DX001 (ip), vehicle: saline 100 % of control

CSCc1cn(C2CC(O)C(CO)O2)c(=O)[nH]c1=O (stereo unspecified)
inactive: [8] 95 % of control | [9] 98 % of control | [10] 98 % of control | [11] 95 % of control | [12] 95 % of control

O=C(NC1=C(N2CC2)C(=O)C(NC(=O)OCCO)=C(N2CC2)C1=O)OCCO
inactive: endpoint: mean survival time, dose: 0.18 mg/kg/injection, schedule: Q01DX009 (ip), vehicle: saline 109 % of control and 112 % of control | endpoint: mean survival time, dose: 0.39 mg/kg/injection, schedule: Q01DX009 (ip), vehicle: saline 113 % of control and 104 % of control | endpoint: mean survival time, dose: 0.75 mg/kg/injection, schedule: Q01DX009 (ip), vehicle: saline 117 % of control and 120 % of control

C1=CC2C=CC12 (stereo unspecified)
inactive: [7] 105 % of control | [1] 108 % of control | [2] 95 % of control | [4] 104 % of control

O=C1C2C=CC=CC1C1C=CC=CC21 (stereo unspecified)
inactive: endpoint: median survival time, dose: 50.0 mg/kg/injection, schedule: Q04DX002 (ip), vehicle: saline with Tween-80 112 % of control | endpoint: median survival time, dose: 100.0 mg/kg/injection, schedule: Q04DX002 (ip), vehicle: saline with Tween-80 100 % of control | endpoint: median survival time, dose: 200.0 mg/kg/injection, schedule: Q04DX002 (ip), vehicle: saline with Tween-80 100 % of control | endpoint: median survival time, dose: 400.0 mg/kg/injection, schedule: Q04DX002 (ip), vehicle: saline with Tween-80 100 % of control

CN(N=O)C(=O)Nc1ccc(C2CC(=O)N(C)C2=O)cc1 (stereo unspecified)
inactive: endpoint: mean survival time, dose: 12.5 mg/kg/injection, schedule: Q01DX001 (ip), vehicle: distilled water + Tween-80 113 % of control | endpoint: mean survival time, dose: 25.0 mg/kg/injection, schedule: Q01DX001 (ip), vehicle: distilled water + Tween-80 101 % of control and 106 % of control | endpoint: mean survival time, dose: 50.0 mg/kg/injection, schedule: Q01DX001 (ip), vehicle: distilled water + Tween-80 108 % of control and 112 % of control | endpoint: mean survival time, dose: 100.0 mg/kg/injection, schedule: Q01DX001 (ip), vehicle: distilled water + Tween-80 113 % of control | endpoint: mean survival time, dose: 200.0 mg/kg/injection, schedule: Q01DX001 (ip), vehicle: distilled water + Tween-80 112 % of control

COc1ccc(CCNC(=O)C(c2ccccc2)c2ccccc2)cc1OC
inactive: [1] 97 % of control | [2] 103 % of control | [3] 90 % of control | [4] 101 % of control | [5] 92 % of control | [6] 100 % of control

COC(=O)C1CCCCCC1=O (stereo unspecified)
inactive: [2] 96 % of control | [4] 94 % of control | [6] 88 % of control

CCOC(=O)N(C)c1ccc(Cl)cc1C(N)=O
inactive: endpoint: mean survival time, dose: 100.0 mg/kg/injection, schedule: Q04DX002 (ip), vehicle: saline with Tween-80 101 % of control | endpoint: mean survival time, dose: 200.0 mg/kg/injection, schedule: Q04DX002 (ip), vehicle: saline with Tween-80 97 % of control | endpoint: mean survival time, dose: 400.0 mg/kg/injection, schedule: Q04DX002 (ip), vehicle: saline with Tween-80 118 % of control
